# ChEMBL document CHEMBL1201862, “PubChem BioAssay data set” (2004)
#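 Cells were grown in 96-well plates and exposed to each compound for 48 hours at five concentrations; endpoints were interpolated linearly between bracketing concentrations, or set to the highest concentration if not reached. Here, GI50 denotes the concentration required for 50% inhibition of growth.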 Calls of active or inactive are those of the source. Rule as the data show it: active = GI50 up to about 1.1 µM and inactive = higher.
# Key:
# Test in all cases: inhibition of tumour cell growth, NCI panel, 48 h
# [1] = system: 786-0
# [2] = system: CAKI-1
# [3] = system: EKVX
# [4] = system: HOP-92
# [5] = system: Hs-578T
# [6] = system: K562
# [7] = system: LOX IMVI
# [8] = system: MCF7
# [9] = system: MDA-MB-435
# [10] = system: NCI-H226
# [11] = system: OVCAR-3
# [12] = system: OVCAR-4
# [13] = system: SF-268
# [14] = system: SN12C
# [15] = system: SNB-75
# [16] = system: T47D
# [17] = system: TK-10
# [18] = system: UACC-257
# [19] = system: UO-31
# [20] = system: DMS-273
Compound,GI50 [1],GI50 [2],GI50 [3],GI50 [4],GI50 [5],GI50 [6],GI50 [7],GI50 [8],GI50 [9],GI50 [10],GI50 [11],GI50 [12],GI50 [13],GI50 [14],GI50 [15],GI50 [16],GI50 [17],GI50 [18],GI50 [19],GI50 [20]
COc1cc(C(c2cc3c(cc2O)OCO3)N2CCCCC2)cc(OC)c1OC (centres undefined),5.86 µM (inactive),12.1 µM (inactive),18.7 µM (inactive),9.25 µM (inactive),14 µM (inactive),2.63 µM (inactive),14.8 µM (inactive),13.6 µM (inactive),5.02 µM (inactive),16.1 µM (inactive),13.8 µM (inactive),11.9 µM (inactive),15.8 µM (inactive),11.5 µM (inactive),16.8 µM (inactive),22.4 µM (inactive),17 µM (inactive),12.5 µM (inactive),14.8 µM (inactive),
CCOc1ccc(-n2c(=O)c3nn4c(=O)n(-c5ccc(OCC)cc5)c(=O)c4nn3c2=O)cc1,70.1 µM (inactive),> 100 µM (inactive),> 100 µM (inactive),30.9 µM (inactive),28.5 µM (inactive),> 100 µM (inactive),> 100 µM (inactive),> 100 µM (inactive),> 100 µM (inactive),> 100 µM (inactive),> 100 µM (inactive),> 100 µM (inactive),> 100 µM (inactive),> 100 µM (inactive),20.3 µM (inactive),> 100 µM (inactive),> 100 µM (inactive),> 100 µM (inactive),> 100 µM (inactive),
COc1ccc(Cc2n[nH]c(Nc3ccc(Br)cc3)nc2=O)cc1OC,> 100 µM (inactive),> 100 µM (inactive),> 100 µM (inactive),> 100 µM (inactive),35 µM (inactive),44.9 µM (inactive),69.5 µM (inactive),44.6 µM (inactive),14.2 µM (inactive),> 100 µM (inactive),> 74.3 µM (inactive),> 100 µM (inactive),88.5 µM (inactive),> 100 µM (inactive),28.9 µM (inactive),94.2 µM (inactive),> 100 µM (inactive),> 100 µM (inactive),> 76.2 µM (inactive),
COc1ccc2c(c1)Oc1cc(O)ccc1[C@@H]2c1ccccc1C(=O)NC(C)c1ccccc1 (some centres undefined),13.7 µM (inactive),20.6 µM (inactive),13.3 µM (inactive),,,14.8 µM (inactive),15.9 µM (inactive),,,18.3 µM (inactive),15.9 µM (inactive),,19.1 µM (inactive),14.6 µM (inactive),14.7 µM (inactive),,23.7 µM (inactive),14.8 µM (inactive),13.5 µM (inactive),14.3 µM (inactive)
C=C1C(=O)CC2C1CC(=O)/C(C)=C/CCC(C)(O)C2O (centres undefined),4.55 µM (inactive),1.55 µM (inactive),18.7 µM (inactive),8.67 µM (inactive),5.4 µM (inactive),2.19 µM (inactive),5.47 µM (inactive),0.249 µM (active),6.55 µM (inactive),30.9 µM (inactive),7.16 µM (inactive),10.9 µM (inactive),18.1 µM (inactive),2.29 µM (inactive),11.8 µM (inactive),1.74 µM (inactive),0.562 µM (active),0.708 µM (active),11.7 µM (inactive),
CC(C)(C)CC(C)(C)NCC(O)COc1ccc(C(C)(C)c2ccc(OCC(O)CNC(C)(C)CC(C)(C)C)cc2)cc1 (centres undefined),1.06 µM (active),1.75 µM (inactive),1.72 µM (inactive),1.78 µM (inactive),,0.244 µM (active),0.429 µM (active),,,1.97 µM (inactive),1.77 µM (inactive),2.01 µM (inactive),1.86 µM (inactive),1.63 µM (inactive),1.6 µM (inactive),,,,1.61 µM (inactive),1.04 µM (active)
